Measurements: patent US8633251B2, “Derivatives of aminoalkanols, method of obtaining of aminoalkanols and their use” (Uniwersytet Jagiellonski, priority 2008, dated 2014)

Columns and labels:
neurotoxicity (rotarod) = assay: Neurotoxicity test (TOX), rotarod, mice; format: in vivo
Protocol: (§1) In order to define anticonvulsant activity, screening tests were performed, using animal models of seizures. […] Each substance (after dissolving in methylcellulose) was normally tested in doses 30, 100, and 300 mg/kg body weight (b.w.) (mice) or in 30 and 50 mg/kg b.w. (rats) in two possible routes of administration: intraperitoneal (i.p.) or oral (p.o.). Appropriate tests were performed 0.5 and 4 h after administration of the compound. […] (mice) the tests were also performed in doses 10 and 3 mg/kg b.w.
It is performed with use of rotarod test. The animal is placed on a plastic rod (1 inch in diameter), rotating 6 rpm. The rod is placed on a level discouraging the animal to jump off. […] Neurotoxicity is stated if the animal cannot stay on the rod for 1 min. in any of 3 trials. Normally the test is performed in dose 30 mg/kg b.w. in 4 mice (0.5 h) and in 2 mice (4 h), in the dose 100 mg/kg b.w. in 8 mice (0.5 h) and in 4 mice (4 h) and in the dose 300 mg/kg b.w. in 4 mice (0.5 h) and 2 mice (4 h).

[1] = system: maximal electroshock seizures; assay: Maximum Electroshock Seizure (MES) test, mice; format: in vivo; conditions: mice, time 0.5 h
Protocol: as §1
Maximum Electroshock Seizure (MES) test is an electric test, verifying activity towards generalized tonic-clonic seizures (grand mal epilepsy). […] Its procedure consists in administration to an animal a mentioned dose, and after 0.5 or 4 h attaching corneal electrodes (after anesthetic eye-drops: 0.5% tetracaine hydrochloride in 0.9% NaCl) and turning on electric current (60 Hz, 0.2 s, 50 mA (mice) or 150 mA (rats)). […] Normally, in the dose 30 mg/kg b.w. the test is done in 1 mouse after 0.5 or 4 h, in the dose 100 mg/kg b.w.—in 3 mice, and in the dose 300 mg/kg b.w.—in 1 mouse.

[2] = mice, dose 300 mg/kg b.w., 0.5 h
[3] = mice, dose 100 mg/kg b.w., time 0.5 h
[4] = mice, dose 300 mg/kg b.w., time 0.5 h

| SMILES | TOX, No. of animals exhibiting motor impairment/no. of used animals (neurotoxicity (rotarod); [2]) | MES, No. of protected animals/No. of used animals ([1]; dose 100 mg/kg b.w.) | TOX, No. of animals exhibiting motor impairment/no. of used animals (neurotoxicity (rotarod); [3]) | TOX, No. of animals exhibiting motor impairment/no. of used animals (neurotoxicity (rotarod); [4]) | other results |
| --- | --- | --- | --- | --- | --- |
| CCC(NC(=O)COc1c(C)cccc1Cl)C(N)=O (racemic) [Compound 78, D,L-2N-[(2-chlor-6-methylphenoxy)acetyl]aminobutyramide] | 1/4 | – | – | – | – |
| Cc1cccc(C)c1OCCN[C@@H]1CCCC[C@H]1O (relative stereo) [Compound 18, D,L-trans-2N-[(2,6-dimethylphenoxy)ethyl]amino-1-cyclohexanol] | – | 3/3 | 7/8 | 4/4 | – |
| Cc1cccc(Cl)c1OCCN[C@@H]1CCCC[C@H]1O (relative stereo) [Compound 30, D,L-trans-2N-[(2-chlor-6-methylphenoxy)ethyl]amino-1-cyclohexanol] | – | 1/1 | 8/8 | 4/4 | MES, No. of protected animals/No. of used animals ([1]; dose 30 mg/kg b.w.): 1/1 |
| Cc1cc(C)c(OCCN[C@@H]2CCCC[C@H]2O)c(C)c1 (relative stereo) [Compound 44, D,L-trans-2N-[(2,4,6-trimethylphenoxy)ethyl]amino-1-cyclohexanol] | – | – | 8/8 | – | MES, No. of protected animals/No. of used animals ([1]; dose 10 mg/kg b.w.): 1/4; MES, No. of protected animals/No. of used animals ([1]; dose 30 mg/kg b.w.): 1/1; TOX, No. of animals exhibiting motor impairment/no. of used animals (neurotoxicity (rotarod); mice, dose 10 mg/kg b.w., time 0.5 h): 1/4 |
| CCC(CO)NCCOc1cccc(C)c1C (centres unmarked) [Compound 2, R,S-2N-[(2,3-dimethylphenoxy)ethyl]amino-1-butanol] | – | 3/3 | – | – | TOX, No. of animals exhibiting motor impairment/no. of used animals (neurotoxicity (rotarod); mouse, in vivo, 100 mg/kg): 8/8; TOX, No. of animals exhibiting motor impairment/no. of used animals (neurotoxicity (rotarod); mouse, in vivo, 300 mg/kg): 4/4 |
| Cc1cccc(OCCNC(C)(C)CO)c1C [Compound 3, 2N-[(2,3-dimethylphenoxy)ethyl]amino-2-methyl-1-propanol] | – | – | 7/8 | 4/4 | responders at 100 mg/kg ([1]; Mus musculus, dose 100 mg/kg b.w., read-out: MES, No. of protected animals/No. of used animals (converted)): 66.7% |
| Cc1ccc(C)c(OCCNCC(C)O)c1 (centres unmarked) [Compound 5, R,S-1N-[(2,5-dimethylphenoxy)ethyl]amino-2-propanol] | – | 3/3 | – | – | TOX, No. of animals exhibiting motor impairment/no. of used animals (neurotoxicity (rotarod); mouse, in vivo, 300 mg/kg): 4/4 |
| Cc1ccc(C)c(OCCNCC(O)c2ccccc2)c1 (centres unmarked) [Compound 9, R,S-2N-[(2,5-dimethylphenoxy)ethyl]amino-1-phenylethanol] | – | – | 7/8 | 3/4 | TOX, No. of animals exhibiting motor impairment/no. of used animals (neurotoxicity (rotarod); mice, dose 300 mg/kg b.w., time 4 h): 1/2 |
| Cc1cc(Cl)ccc1OCCNCC(O)c1ccccc1 (centres unmarked) [Compound 37, R,S-2N-[(4-chlor-2-methylphenoxy)ethyl]amino-1-phenylethanol] | – | – | – | 1/4 | – |
| Cc1cccc(Cl)c1OCC(=O)NCCCC(=O)O [Compound 79, 4N-[(2-chlor-6-methylphenoxy)acetyl]aminobutyric acid] | 1/4 | – | – | – | – |
| Cc1cc(Cl)ccc1OCC(=O)NCC(O)c1ccccc1 (centres unmarked) [Compound 82, R,S-2N-[(4-chlor-2-methylphenoxy)acetyl]amino-1-phenylethanol] | 4/4 | – | – | – | TOX, No. of animals exhibiting motor impairment/no. of used animals (neurotoxicity (rotarod); mice, dose 100 mg/kg b.w., 0.5 h): 2/8; TOX, No. of animals exhibiting motor impairment/no. of used animals (neurotoxicity (rotarod); mice, dose 300 mg/kg b.w., 4 h): 1/2 |
| Cc1cc(C)c(OCC(=O)NCC(O)c2ccccc2)c(C)c1 (centres unmarked) [Compound 83, R,S-2N-[(2,4,6-trimethylphenoxy)acetyl]amino-1-phenylethanol] | 4/4 | – | – | – | – |
